Experimental findings from patent publication EP4692091A1, “CA[…], AND PHARMACEUTICAL COMPOSITION, PREPARATION METHOD THEREFOR AND USE THEREOF” (Changchun Genescience Pharmaceutical Co., Ltd., priority 2023, dated 2024) are described below.

Converted amounts (≈) assume the structure as drawn. Where two headings read alike, the source gives them in different places.

The nature of data set [1]: Stability of compounds in human plasma. In kind it is in vitro ADME. Particulars: 37°C, 5 µmol/L, read-out: Residual percentage (%).
Data set [2] in a line: Stability of compounds in human plasma. In kind it is in vitro ADME. Particulars: 37°C, 5 µmol/L. As to the method: • (1) 199 µL of human plasma was added to the culture plate of each cell. The culture plate was preheated to 37°C, and kept at this temperature for 15 min. • (2) After preincubation, 1 µL of 1 mmol/L each test compound and 1 µL of 1 mmol/L control compound were added to 199 µL of plasma, so that a final concentration of each test compound was 5 µmol/L and that of the control compound was 5 µmol/L. The final concentration of the organic solvent was 0.5%. The experiment would be duplicated twice. • (3) Reaction samples were incubated at 37°C. • (4) The reaction was stopped by adding 600 µL of cold methanol containing the internal standard at 0, 1, 2, 6, and 24 h. Each sample was vortex mixed for 10 min, and then centrifuged at 3,220 g for 30 min to precipitate the protein. […] Based on the signal response and peak shapes of liquid chromatography-mass spectrometry (LC-MS), the supernatant would be diluted with ultrapure water.
All calculations were performed using Microsoft Excel. The peak area ratio was determined from the chromatogram of extracted ions. The percentage of compounds remaining at each time point was calculated as per the following formula: Residual percentagetmin (%) = peak area ratiotmin /peak areat0 × 100 [formula]

The next data set has as its system NCI-N87. The data set can be described thus: Inhibition of proliferation of NCI-N87 cells by test compounds (CellTiter-Glo, 72 h). The data set is classed as cell-based. To be noted: Homo sapiens, NCI-N87, 72 h, NCI-N87, 72 h incubation. The gist of the method: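 NCI-N87 cells were treated after adhesion with compound (final DMSO 0.33%) for 72 h at 37°C. Viability was read as CellTiter-Glo luminescence, and IC50 came from a four-parameter nonlinear fit.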

A further data set concerns the target CYP3A4 (Homo sapiens, UniProt P08684). The data set can be described thus: CYP inhibition in human hepatomicrosomes, CYP3A4.
A short description of data set [3]: Pharmacokinetic test in SD rats. In kind it is in vivo. To be noted: rat, 2 mg/kg, male SD rats, single intravenous injection, 2 mpk, plasma. As to the method: After a single intravenous injection (dose: 2 mpk) of the compounds 6-2, 11-2, 17-2, and Dxd into male SD rats (blood collection time points: 0.083 h, 0.25 h, 0.5 h, 1 h, 2 h, 4 h, 8 h, and 24 h after IV administration, totaling 8 blood collection time points), average pharmacokinetic parameters in the plasma are as shown in Table 5: Table 5 Pharmacokinetic test result of representative compounds

Data set [4] is described as follows: Kinetic solubility test in PBS 7.4. The data set is classed as physicochemical. To be noted: pH 7.4, aqueous buffer. As to the method: 10 mM stock solutions of the test substances 6-2, 11-2, 17-2, Dxd, and the control drugs progesterone and diclofenac were prepared using DMSO respectively.
15 µL of 10 mM stock solution of each of the test substances was added to a corresponding position of a corresponding 96-well plate in a specified sequence. 485 µL of the PBS 7.4 was added to a corresponding vial on a sample plate. The experiment was run in duplicate. Each vial was additionally provided with a stirring rod and was plugged. Then, the sample plate was transferred in a thermostatic mixer, and oscillated at a revolving speed of 1,100 rpm at 25°C for 2 h. 2 h later, the plug was removed, the stirring rod was attracted away with a large magnet, and then the sample was transferred from the sample plate to the filter plate. Negative pressure was generated using a vacuum pump to filter the sample. 5 µL of filtrate and 5 µL of blank DMSO were transferred to another sample plate, and then 490 µL of internal standard water (acetonitrile:water=1:1) containing the internal standard was added. Depending on peak shapes, a certain proportion of internal standard water may be used to dilute the sample diluent to give better peak shapes. […]
The sample filtrate was analyzed and quantified by qualitative and quantitative LC/MS of standard substance peaks at known concentrations. […]

CYP3A4, sequence (P08684 whole entry): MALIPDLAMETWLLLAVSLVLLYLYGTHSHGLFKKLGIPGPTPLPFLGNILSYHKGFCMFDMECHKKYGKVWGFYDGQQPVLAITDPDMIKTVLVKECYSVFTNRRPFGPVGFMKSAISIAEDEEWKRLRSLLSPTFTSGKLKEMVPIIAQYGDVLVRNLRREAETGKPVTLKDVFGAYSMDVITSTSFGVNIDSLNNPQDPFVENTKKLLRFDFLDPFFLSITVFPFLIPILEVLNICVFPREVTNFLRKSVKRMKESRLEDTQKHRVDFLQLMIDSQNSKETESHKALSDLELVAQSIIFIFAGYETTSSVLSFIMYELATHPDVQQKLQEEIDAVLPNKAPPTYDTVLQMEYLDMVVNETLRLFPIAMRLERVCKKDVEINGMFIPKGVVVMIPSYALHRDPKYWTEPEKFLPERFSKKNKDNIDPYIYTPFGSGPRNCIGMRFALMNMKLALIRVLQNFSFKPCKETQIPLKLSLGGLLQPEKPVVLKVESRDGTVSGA

With `CC[C@@]1(O)C(=O)OCc2c1cc1n(c2=O)Cc2c-1nc1cc(F)c(C)c3c1c2[C@@H](NC(=O)CO)CC3` [Dxd], the remaining at 4 h, 5 µM in data set [1] worked out at 83.6%. For the same molecule, in data set [2] (0 h), the “Residual percentage (%)” value amounted to 100.00%. The remaining at 1 h, 5 µM in data set [2] (1 h, read-out: Residual percentage (%)) was 89.4%. In addition, the remaining at 2 h, 5 µM in data set [2] (2 h, read-out: Residual percentage (%)) was 86.8%. Further, the remaining at 6 h, 5 µM in data set [2] (6 h, read-out: Residual percentage (%)) is 86.4%. Also, the remaining at 24 h, 5 µM in data set [2] (24 h, read-out: Residual percentage (%)) came to 82.3%. The molecule further gave an IC50 in the data set with NCI-N87 of 0.011 µM. At CYP3A4, this molecule gave an IC50 of over 30 µM. The IC50 on CYP3A4 (read-out: 3A4M (IC50 µM), human hepatomicrosomes, substrate Midazolam) is over 30 µM. In data set [3], this molecule had an AUC(0-inf) of 302 ng·h/mL, an AUC(0-t) of 301 ng·h/mL, a C0 of 748 ng/mL and a clearance of 113 mL/min/kg. The same molecule had a half-life in data set [3] of 23.4 min. For the same molecule, in data set [3] (read-out: Vss), the Vd turned out to be 2.7 L/kg. In data set [4], the concentration in solution (solubility at 2 h) came to 11.3 µM (≈ 5.58 µg/mL).
